Legend:
[1] = test system: intestinal transport of certain nutrients; details: cited from earlier work
IGF-1 response = details: certain cell studies; cited from earlier work
[2] = test system: adrenocorticotropin (ACTH) and cortisol response; details: intravenous infusion; cited from earlier work
[3] = test system: lean skeletal muscle mass; details: peroral, humans, clinical study by the inventor

Substance | increasing lean skeletal muscle mass [3] | also measured
Lysophosphatidylcholine | – | intestinal transport of certain nutrients [1]: increases
Phosphatidylcholine | – | IGF-1 response (IGF-1 response): exert an IGF-1 response
Phosphatidylserine | – | adrenocorticotropin (ACTH) and cortisol response to stressful exercise [2]: significantly suppresses
lysophosphatidylcholine arachidonic acid | effective | –
phosphatidylcholine arachidonic acid | effective | –
phosphatidylserine arachidonic acid | effective | –

From US7199112B2, “Use of phospholipid arachidonic acids for increasing muscle mass in humans” (priority 2005, dated 2007)
